Results from BindingDB's records for doi:10.1016/0960-894X(95)00403-G (1995).

Test: Compound was tested for inhibiting [3H]N-Methyl-scopolamine Binding to Muscarinic acetylcholine receptor M4 in NG 108-15 Cell

## C[N+]1(C)CCC2(CC1)OC(=O)C(c1ccccc1)(c1ccccc1)O2
  Ki: 11 nM
